In data set [1] the test system is adoptive transfer EAE model of multiple sclerosis. Particulars: rat, in vivo, sc.
Data set [2] deals with IL-2R on CD4+ T cells in human whole blood. Format: cell-based.
In data set [3] the test system is CD40L on CD4+ T cells in human whole blood. The format is cell-based.
The subject of data set [4] is IFNγ production from αCD3 and αCD28 antibody stimulated human PBMCs. The format is cell-based.
Data set [5] has as its system IFNγ production from PMA and αCD3 antibody stimulated human PBMCs. Format: cell-based.
Data set [6] has as its system thapsigargin-induced IFN-g production in human whole blood. The format is cell-based.
Data set [7] concerns thapsigargin-induced IL-2 production in human whole blood.
Data set [8] concerns IL-2 production from αCD3 and αCD28 antibody stimulated human PBMCs. Format: cell-based.
The conditions of data set [9]: rat, in vivo, iv.
For data set [10], the system named is IL-2 production from PMA and αCD3 antibody stimulated human PBMCs. Format: cell-based.
Data set [11] concerns the target fixed HEK 293 cells stably transfected with human Kv1.3 (Homo sapiens, UniProt P22001). Put plainly: Whole cell immunoassay (ELISA) on fixed HEK 293 cells overexpressing Kv1.3. Format: binding. Here is the method:
Our peptibody reagent can be a useful and convenient tool for monitoring Kv1.3 channel expression in patients and have utility in diagnostic applications. The procedure shown in FIG. 34A and FIG. 34B follows.
FIG. 34A. A whole cell immunoassay was performed to show binding of intact Fc-L10-ShK[1-35] to Kv1.3 transfected HEK 293 cells (BioFocus plc, Cambridge, UK). Parent HEK 293 cells or HEK Kv1.3 cells were plated at 3×10e4 cells/well in poly-D-Lysine coated ninety-six well plates (#35-4461; Becton-Dickinson, Bedford, Mass.). Cells were fixed with formalin (Sigma HT50-1-1 Formalin solution, diluted 1:1 with PBS/0.5% BSA before use) by removing cell growth medium, adding 0.2 ml/well formalin solution and incubating at room temperature for 25 minutes and then washing one time with 100 μl/well of PBS/0.5% BSA. Wells were blocked by addition of 0.3 ml/well of BSA blocker (50-61-00; KPL 10% BSA Diluent/Blocking Solution, diluted 1:1 with PBS; KPL, Gaithersburg, Md.) followed by incubation at room temperature, with shaking, for 3 hr. Plates were washed 2 times with 1×KP Wash Buffer (50-63-00; KPL). […] Absorbance was read at 450 nm on a Molecular Devices SpectroMax 340 (Sunnyvale, Calif.).
FIG. 34B. […] Absorbances were read at 405 nm after stopping reactions by addition of 0.1 ml/well of 1% SDS.
In general terms: An ELISA detects its analyte on a solid surface through an enzyme-linked reagent.

The target of data set [12] is HEK 293 cells overexpressing human Kv1.3 (Homo sapiens, UniProt P22001). Put plainly: Immunohistochemistry of binding to HEK 293 cells overexpressing human Kv1.3. Particulars: 5 μg/ml peptibody. On the procedure: Immunohistochemistry analysis of Fc-L10-ShK[1-35] binding to HEK 293 cells overexpressing human Kv1.3. HEK 293 cells overexpressing human Kv1.3 (HEK Kv1.3) were obtained from BioFocus plc (Cambridge, UK) and maintained per manufacturer's recommendation. The parental HEK 293 cell line was used as a control. Cells were plated on Poly-D-Lysine 24 well plates (#35-4414; Becton-Dickinson, Bedford, Mass.) and allowed to grow to approximately 70% confluence. HEK KV1.3 were plated at 0.5×10e5 cells/well in 1 ml/well of medium. HEK 293 cells were plated at a density of 1.5×10e5 cells/well in 1 ml/well of medium. Before staining, cells were fixed with formalin (Sigma HT50-1-1 Formalin solution, diluted 1:1 with PBS/0.5% BSA before use) by removing cell growth medium, adding 0.2 ml/well formalin solution and incubating at room temperature for ten minutes. Cells were stained by incubating with 0.2 ml/well of 5 μg/ml Fc-L10-ShK[1-35] in PBS/BSA for 30′ at room temperature. Fc-L10-ShK[1-35] was aspirated and then the cells were washed one time with PBS/0.5% BSA. Detection antibody (Goat F(ab)2 anti-human IgG-phycoerythrin; Southern Biotech Associates, Birmingham, Ala.) was added to the wells at 5 μg/ml in PBS/0.5% BSA and incubated for 30′ at room temperature. Wash cells once with PBS/0.5% BSA and examine using confocal microscopy (LSM 510 Meta Confocal Microscope; Carl Zeiss AG, Germany). […]
HEK 293 cells overexpressing human Kv1.3, sequence (P22001 whole entry): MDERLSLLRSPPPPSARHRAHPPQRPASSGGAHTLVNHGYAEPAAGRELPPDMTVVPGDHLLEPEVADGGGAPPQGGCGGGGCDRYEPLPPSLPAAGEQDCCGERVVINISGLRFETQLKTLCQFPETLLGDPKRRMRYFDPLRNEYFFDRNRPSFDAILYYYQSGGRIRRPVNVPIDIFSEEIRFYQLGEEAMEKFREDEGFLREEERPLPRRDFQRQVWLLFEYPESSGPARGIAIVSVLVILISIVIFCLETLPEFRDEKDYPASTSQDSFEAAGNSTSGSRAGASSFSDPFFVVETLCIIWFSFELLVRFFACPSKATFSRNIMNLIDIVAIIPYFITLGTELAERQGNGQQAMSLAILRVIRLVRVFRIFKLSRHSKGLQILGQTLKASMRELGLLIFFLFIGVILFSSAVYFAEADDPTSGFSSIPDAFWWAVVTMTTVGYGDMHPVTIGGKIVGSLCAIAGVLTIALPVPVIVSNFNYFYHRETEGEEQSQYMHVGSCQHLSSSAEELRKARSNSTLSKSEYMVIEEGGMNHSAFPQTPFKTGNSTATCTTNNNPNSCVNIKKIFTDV

Data set [13] relates to T cell proliferation in human PBMCs. Put plainly: T cell proliferation (3H-thymidine incorporation) in anti-CD3/anti-CD28 stimulated human PBMCs. The format is cell-based. To be noted: two normal donors. From the text: Inhibition of T cell proliferation following anti-CD3 and anti-CD28 antibody stimulation of PBMCs. PBMC's were previously isolated from normal human donor Leukophoresis packs, purified by density gradient centrifugation (Ficoll Hypaque), cryopreserved in CPZ Cryopreservation Medium Complete (INCELL, MCPZF-100 plus 10% DMSO final). PBMC's were thawed (95% viability), washed, and seeded at 2×10^5 cells per well in culture medium (RPMI medium 1640; GIBCO) supplemented with 10% fetal calf serum, 100 U/ml penicillin, […] streptomycin, 2 mM L-glutamine, 100 μM non-essential amino acids, and 20 μM 2-ME) in 96-well flat-bottom tissue culture plates. Cells were pre-incubated with either anti-human CD32 (FcyRII) blocking antibody (per manufacturers instructions EASY SEP Human Biotin Selection Kit #18553, StemCell Technologies Vancouver, BC) or Fc-L10-ShK (100 nM-0.001 nM final) for 45 min. Fc-L10-ShK (100 nM-0.001 nM final) was then added to the cells containing anti-human CD32 blocking antibody while medium was added to the cells containing Fc-L10-ShK. Both sets were incubated for an additional 45 min before stimulating for 48 hr with aCD3/aCD28 (0.2 ng/ml and 100 ng/ml, respectively). Final assay volume was 200 ul. […] Cells were then harvested onto glass fiber filters and radioactivity was measured in a B-scintillation counter.

Data on two compounds can be found in patent US7820623B2 (priority 2006, dated 2010).

fixed HEK 293 cells stably transfected with human Kv1.3, sequence (P22001 whole entry): as above

Turning to `CC[C@H](C)[C@@H]1NC(=O)[C@@H](NC(=O)[C@H](CO)NC(=O)[C@@H](N)CCCNC(=N)N)CSSC[C@@H](C(=O)O)NC(=O)[C@H]([C@@H](C)O)NC(=O)CNC(=O)[C@@H]2CSSC[C@@H]3NC(=O)[C@H](CCC(N)=O)NC(=O)[C@H](Cc4ccccc4)NC(=O)[C@H](C)NC(=O)[C@H]([C@@H](C)O)NC(=O)[C@H](CSSC[C@H](NC(=O)[C@H](Cc4ccccc4)NC(=O)[C@H](CO)NC(=O)[C@H](CC(C)C)NC(=O)[C@H](CCCNC(=N)N)NC(=O)[C@H](Cc4ccc(O)cc4)NC(=O)[C@H](CCCCN)NC(=O)[C@H](CCSC)NC(=O)[C@H](CO)NC(=O)[C@H](Cc4cnc[nH]4)NC(=O)[C@H](CCCCN)NC3=O)C(=O)N[C@@H](CCCNC(=N)N)C(=O)N[C@@H](CCCCN)C(=O)N[C@@H]([C@@H](C)O)C(=O)N2)NC(=O)[C@H](CCCNC(=N)N)NC(=O)[C@H](CO)NC(=O)[C@H](CCCCN)NC(=O)[C@@H]2CCCN2C(=O)[C@H]([C@@H](C)CC)NC(=O)[C@H]([C@@H](C)O)NC(=O)[C@H](CC(=O)O)NC1=O` [ShK, reference compound], in data set [1], the “body weight lost (average)” value is reported as 30 g; the “disease severity and survival” value is “developed severe disease and died”; the onset of disease is 4 days. For the same compound, in data set [2], the “thapsigargin-induced upregulation of the IL-2R on T cells” value was “suppressed”. Moreover, the “thapsigargin-induced upregulation of CD40L on T cells” value in data set [3] is on record as “suppressed”. In addition, the “inhibition of IFNg production” value in data set [4] is listed as “partial inhibition”. Also, in [5], the “inhibition of IFNγ production” value was “partial inhibition”. In addition, the “thapsigargin-induced IFN-g production in human whole blood” value in data set [6] is reported as “suppressed”. In addition, in data set [7], the “thapsigargin-induced IL-2 production in human whole blood” value is “suppressed”. For the same compound, the “inhibition of IL-2 production” value in data set [8] is recorded as “partial inhibition”. For the same compound, the “duration of significant suppression of Kv1.3 current (<70 POC) by serum” value in data set [9] is not above 1 h. Further, the “inhibition of IL-2 production” value in [10] was “partial inhibition”.
Turning to “Fc-L10-ShK[1-35]: Fc region of human IgG1 fused in-frame to L10 linker and a monomer of Kv1.3 inhibitor peptide ShK[1-35]”, the “thapsigargin-induced upregulation of the IL-2R on T cells” value in data set [2] was “suppressed”. In addition, in [11], the “enzyme-immunoassay response on fixed Kv1.3 transfected cells” value is given as “dose-dependent increase in response”. Further, the “staining of cells” value in data set [12] is recorded as “stains HEK 293 cells stably transfected with human Kv1.3”. For the same compound, in data set [3], the “thapsigargin-induced upregulation of CD40L on T cells” value is “suppressed”. In addition, in [4], the “inhibition of IFNg production” value is “nearly complete inhibition”. For the same compound, the “inhibition of IFNγ production” value in data set [5] was “complete inhibition”. For the same compound, the “inhibition of T cell proliferation” value in [13] is “potently inhibits proliferation of T cells in a dose-dependent manner”. The “inhibition of IL-2 production” value is on record as “nearly complete inhibition” in [8] and “complete inhibition” in [10].
